For the test, the system named is patients with Cocaine Use Disorder (CUD). Briefly: Phase 2 trial: anxiety (STAI) and depressive symptoms (BDI-II). It counts as in vivo, human. The note with it: for anxiety symptoms by STAI: difference vs placebo not statistically significant (P=0.144 S-Anxiety, P=0.425 T-Anxiety); for depressive symptoms by BDI: difference vs placebo not statistically significant (P=0.696 BDI-II). As for the experimental part:
This study was conducted in patients with CUD and consisted of about a 21-day screening period followed by a 7-day baseline period, a 98-day outpatient treatment period, and an end of study visit evaluation about 14 days after the last study drug administration ([…]. A). Study treatment was taken twice daily (separated by about 12-hour intervals) with food. For patients in the mavoglurant arm [mavoglurant (free form) provided as modified release formulation (e.g. in WO2014/199316)], an uptitration regimen was performed for 14 days (50 mg b.i.d. from Days 1 to 7 and 100 mg b.i.d from Days 8 to 14) and was followed by 200 mg b.i.d for 84 days.
Patient Reported Outcome included: • 1. The TLFB cocaine: is a cocaine assessment method that obtains estimates of daily cocaine intake and has been evaluated with clinical and nonclinical populations. Using a calendar, people provide retrospective estimates of their daily cocaine use over a specified time period that can vary up to 12 months from the interview date. Several memory aids can be used to enhance recall (e.g., calendar; key dates serve as anchors for reporting cocaine use). […] The method is recommended for use when relatively precise estimates of cocaine use are necessary, especially when a complete use pre-posttreatment). Clinically, the TLFB can be used to provide feedback about one's cocaine consumption in an effort to increase a client's motivation to change. • 2. The TLFB alcohol: is a drinking assessment method that obtains estimates of daily drinking and has been evaluated with clinical and nonclinical populations. Using a calendar, people provide retrospective estimates of their daily drinking over a specified time period that can vary up to 12 months from the interview date. Several memory aids can be used to enhance recall (e.g., calendar; key dates serve as anchors for reporting drinking; standard drink conversion). […] The method is recommended for use when relatively precise estimates of drinking are necessary, especially when a complete picture of drinking days (i.e., high- and low-risk days) is needed (evaluating drinking pre/post-treatment). Clinically, the TLFB can be used to provide feedback about one's drinking in an effort to increase a client's motivation to change. Overall, the Alcohol TLFB method provides a relatively accurate portrayal of drinking, and has both clinical and research utility. • 3. The BDI-II: is instrument endorsed by the National Institute for Health and Clinical Excellence for use in primary care in measuring baseline depression severity and responsiveness to treatment. • 4. The STAI: is an assessment tool for measuring the presence and severity of current symptoms of anxiety and a generalized propensity to be anxious. […]

Take `COC(=O)N1CC[C@@H]2[C@H]1CCC[C@@]2(O)C#Cc1cccc(C)c1` [mavoglurant, (-)-(3aR,4S,7aR)-4-Hydroxy-4-m-tolylethynyl-octahydro-indole-1-carboxylic acid methyl ester]: the “anxiety symptoms by STAI” value is “reduced nonsignificantly” and the “depressive symptoms by BDI” value is “reduced nonsignificantly”. Under “listed as Mavoglurant”, the “anxiety symptoms by STAI” value was “reduced anxiety and depressive symptoms”; the “depressive symptoms by BDI” value was “reduced anxiety and depressive symptoms”.

The record behind these values is US20240050408A1, “USE OF MGLUR5 ANTAGONISTS FOR TREATING AMPHETAMINE ADDICTION” (NOVARTIS AG, priority 2020, published 2024).
